Reference: ChEMBL document CHEMBL3872257, “Multitarget drug design strategy against Alzheimer's disease: Homoisoflavonoid Mannich base derivatives serve as acetylcholinesterase and monoamine oxidase B dual inhibitors with multifunctional properties” (Bioorg Med Chem, 2017)
The source made the active and inactive calls. The calls are words filed in the database; no cut-off is given here.

Key:
[1] = Antioxidant activity assessed as trolox equivalent of […]-induced radical scavenging activity preincubated for 15 mins followed by AAPH addition measured every minute for 120 mins by ORAC fluorescein assay; type: functional
[2] = Inhibition of copper-mediated aggregation of amyloid beta (1 to 42 residues) (unknown origin) at 25 uM incubated for 24 hrs by thioflavin-T fluorescence assay relative to control; type: physicochemical
[3] = biological target: Butyrylcholinesterase (Rattus norvegicus) (UniProt Q9JKC1); test: Inhibition of rat serum BuChE at 50 uM measured after 15 mins by Ellman's method relative to control
[4] = biological target: Amyloid-beta precursor protein (Homo sapiens) (UniProt P05067); test: Inhibition of self-mediated aggregation of amyloid beta (1 to 42 residues) (unknown origin) at 25 uM incubated for 24 hrs by Thioflavin T fluorescence assay relative to control
Homo sapiens = species: Homo sapiens; test: Selectivity index, ratio of IC50 for human recombinant MAO-A to IC50 for human recombinant MAO-B
[5] = biological target: T1, Amine oxidase [flavin-containing] B (Homo sapiens, UniProt P27338)
T1 sequence (P27338 whole entry): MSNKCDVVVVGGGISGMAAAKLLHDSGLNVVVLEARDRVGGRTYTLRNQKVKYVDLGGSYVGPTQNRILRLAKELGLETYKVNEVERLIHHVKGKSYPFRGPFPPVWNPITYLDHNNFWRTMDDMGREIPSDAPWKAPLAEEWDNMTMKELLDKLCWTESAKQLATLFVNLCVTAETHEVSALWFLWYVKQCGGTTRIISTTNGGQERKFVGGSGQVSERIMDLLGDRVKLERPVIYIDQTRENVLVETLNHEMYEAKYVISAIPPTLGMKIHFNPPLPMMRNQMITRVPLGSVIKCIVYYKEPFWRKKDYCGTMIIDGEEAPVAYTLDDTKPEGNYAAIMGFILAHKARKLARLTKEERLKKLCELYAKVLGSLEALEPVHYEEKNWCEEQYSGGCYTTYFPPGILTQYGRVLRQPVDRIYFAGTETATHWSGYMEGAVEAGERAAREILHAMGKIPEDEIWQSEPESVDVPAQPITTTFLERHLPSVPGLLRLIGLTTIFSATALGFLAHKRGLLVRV
Description: Inhibition of human recombinant MAO-B using kynuramine as substrate measured after 30 mins by fluorescence assay

[6] = biological target: T2, Amine oxidase [flavin-containing] A (Homo sapiens, UniProt P21397); test: Inhibition of human recombinant MAO-A using kynuramine as substrate at 20 uM measured after 30 mins by fluorescence assay relative to control; details: 0.5 h
T2 sequence (P21397 whole entry): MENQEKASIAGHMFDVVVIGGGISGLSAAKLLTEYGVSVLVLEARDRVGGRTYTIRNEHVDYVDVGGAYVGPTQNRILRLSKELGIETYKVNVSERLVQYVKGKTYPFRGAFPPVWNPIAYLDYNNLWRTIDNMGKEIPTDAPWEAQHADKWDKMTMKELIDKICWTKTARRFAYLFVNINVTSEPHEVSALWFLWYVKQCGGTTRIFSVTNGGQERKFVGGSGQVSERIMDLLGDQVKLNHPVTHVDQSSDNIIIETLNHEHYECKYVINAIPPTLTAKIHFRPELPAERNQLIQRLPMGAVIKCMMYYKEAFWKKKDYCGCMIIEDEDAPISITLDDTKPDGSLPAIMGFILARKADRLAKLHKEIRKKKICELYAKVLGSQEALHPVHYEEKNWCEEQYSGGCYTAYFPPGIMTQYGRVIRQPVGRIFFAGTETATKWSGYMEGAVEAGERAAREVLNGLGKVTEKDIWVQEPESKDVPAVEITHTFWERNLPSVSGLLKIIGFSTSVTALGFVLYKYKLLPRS

Acetylcholinesterase = Acetylcholinesterase (Electrophorus electricus, UniProt O42275); test: Inhibition of Electrophorus electricus AChE using acetylthiocholine iodide as substrate measured after 15 mins by Ellman's method
[7] = biological target: T1, Amine oxidase [flavin-containing] B; test: Inhibition of human recombinant MAO-B using kynuramine as substrate at 20 uM measured after 30 mins by fluorescence assay relative to control; details: 0.5 h
[8] = Metal chelating activity assessed as aluminium-compound complex formation at 37.5 uM in presence of AlCl3 measured after 30 mins by UV-vis spectrometry; type: physicochemical; details: 0.5 h
[9] = Metal chelating activity assessed as iron-compound complex formation at 37.5 uM in presence of FeSO4 measured after 30 mins by UV-vis spectrometry; type: physicochemical; details: 0.5 h
[10] = Metal chelating activity assessed as copper-compound complex formation at 37.5 uM in presence of CuCl2 measured after 30 mins by UV-vis spectrometry; type: physicochemical; details: 0.5 h
[11] = Permeability of the compound at 100 ug/ml after 18 hrs by PAMPA assay; type: ADME; details: read-out: permeability
[12] = Metal chelating activity assessed as zinc-compound complex formation at 37.5 uM in presence of ZnCl2 measured after 30 mins by UV-vis spectrometry; type: physicochemical; details: 0.5 h
Rattus norvegicus = species: Rattus norvegicus; test: Cytotoxicity against rat PC12 cells assessed as effect on cell viability at 1 to 10 uM measured after 48 hrs by MTT assay; type: toxicity, cell-based; details: pc-12, 48 h
[13] = Cytotoxicity against rat PC12 cells assessed as cell viability at 100 uM measured after 48 hrs by MTT assay relative to control; type: toxicity, PC-12; details: read-out: Activity
[14] = biological target: Acetylcholinesterase (Electrophorus electricus) (UniProt O42275); test: Mixed-type inhibition of […] AChE preincubated for 15 mins followed by addition of acetylthiocholine iodide as substrate in varying concentrations by Lineweaver-Burk reciprocal plot analysis
Acetylcholinesterase (Electrophorus electricus), sequence (O42275 24-633 limits assumed): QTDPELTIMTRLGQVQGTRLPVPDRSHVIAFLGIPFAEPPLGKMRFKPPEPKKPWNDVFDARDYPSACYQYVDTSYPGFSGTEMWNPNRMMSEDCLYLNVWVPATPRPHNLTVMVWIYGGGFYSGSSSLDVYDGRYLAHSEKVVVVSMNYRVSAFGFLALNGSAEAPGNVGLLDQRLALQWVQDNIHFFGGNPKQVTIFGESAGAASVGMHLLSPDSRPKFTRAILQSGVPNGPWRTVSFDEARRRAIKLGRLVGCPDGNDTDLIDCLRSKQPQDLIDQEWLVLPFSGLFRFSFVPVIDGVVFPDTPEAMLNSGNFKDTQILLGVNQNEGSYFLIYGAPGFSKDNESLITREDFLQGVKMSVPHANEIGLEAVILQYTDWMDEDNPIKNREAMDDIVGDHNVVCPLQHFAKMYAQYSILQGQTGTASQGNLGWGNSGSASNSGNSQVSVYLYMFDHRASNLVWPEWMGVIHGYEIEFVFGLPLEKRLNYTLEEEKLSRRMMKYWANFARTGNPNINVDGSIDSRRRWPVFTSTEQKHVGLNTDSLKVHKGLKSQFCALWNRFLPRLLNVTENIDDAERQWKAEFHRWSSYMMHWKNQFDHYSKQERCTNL

Acetylcholinesterase, sequence (O42275 whole entry): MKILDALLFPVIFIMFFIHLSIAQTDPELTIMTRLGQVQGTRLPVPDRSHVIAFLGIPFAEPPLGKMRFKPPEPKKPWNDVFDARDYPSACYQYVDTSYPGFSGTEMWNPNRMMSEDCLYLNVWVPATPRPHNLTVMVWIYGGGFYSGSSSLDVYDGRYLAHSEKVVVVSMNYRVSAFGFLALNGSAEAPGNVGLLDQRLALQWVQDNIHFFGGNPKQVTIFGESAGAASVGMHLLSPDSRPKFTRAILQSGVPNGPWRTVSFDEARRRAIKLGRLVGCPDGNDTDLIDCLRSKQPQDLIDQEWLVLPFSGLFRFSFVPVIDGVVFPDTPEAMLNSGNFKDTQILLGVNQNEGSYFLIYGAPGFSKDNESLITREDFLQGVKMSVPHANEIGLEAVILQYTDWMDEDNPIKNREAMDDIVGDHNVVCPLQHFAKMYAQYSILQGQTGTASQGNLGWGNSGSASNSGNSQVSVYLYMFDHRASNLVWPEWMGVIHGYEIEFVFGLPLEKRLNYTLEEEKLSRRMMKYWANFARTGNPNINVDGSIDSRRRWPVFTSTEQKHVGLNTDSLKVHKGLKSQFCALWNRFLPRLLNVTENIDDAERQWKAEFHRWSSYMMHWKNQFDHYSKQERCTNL
Butyrylcholinesterase (Rattus norvegicus), sequence (Q9JKC1 as listed by the source): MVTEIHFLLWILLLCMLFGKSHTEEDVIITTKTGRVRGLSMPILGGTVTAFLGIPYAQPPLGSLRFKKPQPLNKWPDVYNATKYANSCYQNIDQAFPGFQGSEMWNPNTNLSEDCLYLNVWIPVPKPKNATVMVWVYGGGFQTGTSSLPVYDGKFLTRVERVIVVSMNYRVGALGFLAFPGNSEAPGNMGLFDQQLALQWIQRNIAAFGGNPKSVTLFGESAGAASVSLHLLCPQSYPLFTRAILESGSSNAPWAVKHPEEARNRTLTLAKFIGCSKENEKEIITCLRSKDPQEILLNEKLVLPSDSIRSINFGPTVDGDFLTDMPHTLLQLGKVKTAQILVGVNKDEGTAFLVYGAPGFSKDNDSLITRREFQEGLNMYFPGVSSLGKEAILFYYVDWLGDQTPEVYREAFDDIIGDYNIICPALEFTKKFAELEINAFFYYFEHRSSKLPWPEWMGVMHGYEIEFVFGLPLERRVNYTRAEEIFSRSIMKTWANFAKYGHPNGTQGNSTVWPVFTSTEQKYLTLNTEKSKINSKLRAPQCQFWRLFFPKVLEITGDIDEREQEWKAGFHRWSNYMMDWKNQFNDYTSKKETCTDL
Amyloid-beta precursor protein (Homo sapiens), sequence (P05067 whole entry, the tested form may be a part): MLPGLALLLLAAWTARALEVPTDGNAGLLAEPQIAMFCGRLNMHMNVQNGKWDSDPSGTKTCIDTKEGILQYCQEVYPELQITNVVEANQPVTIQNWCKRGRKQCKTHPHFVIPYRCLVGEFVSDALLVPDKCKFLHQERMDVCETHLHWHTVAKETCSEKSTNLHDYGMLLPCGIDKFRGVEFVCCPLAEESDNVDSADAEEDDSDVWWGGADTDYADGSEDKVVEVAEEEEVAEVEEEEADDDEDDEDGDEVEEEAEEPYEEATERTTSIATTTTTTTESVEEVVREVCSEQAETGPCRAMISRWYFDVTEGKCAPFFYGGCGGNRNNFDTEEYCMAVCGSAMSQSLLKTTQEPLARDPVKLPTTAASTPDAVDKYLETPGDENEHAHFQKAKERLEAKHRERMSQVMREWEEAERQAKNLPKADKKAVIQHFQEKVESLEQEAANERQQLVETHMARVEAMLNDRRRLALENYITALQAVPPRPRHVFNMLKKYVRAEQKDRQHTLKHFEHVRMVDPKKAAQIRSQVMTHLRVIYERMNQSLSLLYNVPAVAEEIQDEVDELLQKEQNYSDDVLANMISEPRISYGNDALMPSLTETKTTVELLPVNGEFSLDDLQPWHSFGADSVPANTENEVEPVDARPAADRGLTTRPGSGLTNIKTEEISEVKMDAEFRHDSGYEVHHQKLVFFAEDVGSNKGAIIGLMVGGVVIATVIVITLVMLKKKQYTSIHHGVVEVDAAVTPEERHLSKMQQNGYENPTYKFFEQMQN

Row | SMILES | Activity [1] [equiv] | inhibition (INH) [2] [%] | inhibition [3] [%] | inhibition [4] [%] | Ratio IC50 (Homo sapiens) | IC50 [5] [nM] | inhibition [6] [%] | IC50 (Acetylcholinesterase) [µM] | inhibition at 20 µM [7] [%] | Activity [8] | Activity [9] | Activity [10] | Papp at 18 h, 100 ug/ml [11] [×10⁻⁶ cm/s] | Activity [12] | Activity (Rattus norvegicus) | viability at 48 h, 100 µM [13] [%] | inhibition [14]
1 | COc1ccccc1CN(C)Cc1ccc(/C=C2\COc3cc(OC)c(OC)cc3C2=O)cc1O | 1.78 | 67.8 | 11.2 | 37.8 | > 19.4 | 1030 | 12.3 | 16.4 | – | – | – | – | – | – | – | – | –
2 | COc1cc2c(cc1OC)C(=O)/C(=C/c1ccc(CN(C)Cc3ccccc3)c(O)c1)CO2 | 1.57 | 42.6 | < 5 | 7.7 | > 17.4 | 1150 | 3.4 | 1.99 | – | – | – | – | – | – | – | – | –
3 | COc1cc2c(cc1OC)C(=O)/C(=C/c1ccc(CN(C)C)c(O)c1)CO2 | 1.71 | 42.2 | < 5 | 35.2 | > 22.7 | 882 | 8.2 | 0.536 | – | – | – | – | – | – | – | – | –
4 | COc1ccccc1CN(C)Cc1c(O)cccc1/C=C1\COc2cc(OC)c(OC)cc2C1=O | 1.69 | 54.9 | 16 | 35.6 | – | – | 9.8 | 33.3 | 43.9 | – | – | – | – | – | – | – | –
5 | COc1cc2c(cc1OC)C(=O)/C(=C/c1cccc(O)c1CN1CCOCC1)CO2 | 1.52 | 32.4 | 7.85 | 7.8 | – | – | 2.1 | 85.9 | 18.6 | – | – | – | – | – | – | – | –
6 | COc1cc2c(cc1OC)C(=O)/C(=C/c1ccc(CN3CCOCC3)c(O)c1)CO2 | 1.35 | 38.7 | < 5 | 28.3 | > 19.8 | 1010 | 23 | 1.29 | – | – | – | – | – | – | – | – | –
7 | CCN(Cc1ccccc1)Cc1ccc(/C=C2\COc3cc(OC)c(OC)cc3C2=O)cc1O | 1.13 | 49.9 | < 5 | 32.7 | > 11.6 | 1720 | 15 | 0.364 | – | – | – | – | – | – | – | – | –
8 | CCN(Cc1ccc(/C=C2\COc3cc(OC)c(OC)cc3C2=O)cc1O)Cc1ccccc1N(C)C | 0.97 | 79.9 | 44.6 | 59.6 | > 14.9 | 1340 | 28.3 | 18.1 | – | Active | Active | Active | 10.5 | Active | – | – | –
9 | COc1cc2c(cc1OC)C(=O)/C(=C/c1ccc(CN3CCN(C)CC3)c(O)c1)CO2 | 2.11 | 40.5 | < 5 | 41.9 | > 21.9 | 915 | 40.5 | 6.26 | – | – | – | – | – | – | – | – | –
10 | COc1cc2c(cc1OC)C(=O)/C(=C/c1ccc(O)c(CN3CCCCC3)c1)CO2 | 2.32 | 49 | < 5 | 41.4 | > 1.4 | 14000 | 17 | 0.928 | – | – | – | – | – | – | – | – | –
11 | COc1cc(/C=C/C(=O)CC(=O)/C=C/c2ccc(O)c(OC)c2)ccc1O [CURCUMIN] | – | 67.2 | – | – | – | – | – | – | – | – | – | – | – | – | – | – | –
12 | CCN(Cc1ccc(/C=C2\COc3cc(OC)c(OC)cc3C2=O)cc1O)Cc1ccccc1OC | 1.8 | 65.8 | 22.7 | 44 | > 13.3 | 1500 | 14 | 15.7 | – | – | – | – | 6.05 | – | – | – | –
13 | COc1cc2c(cc1OC)C(=O)/C(=C/c1cccc(O)c1CN1CCN(C)CC1)CO2 | 1.83 | 36.3 | < 5 | 26.8 | – | – | 6.8 | 84.1 | 29.8 | – | – | – | – | – | – | – | –
14 | CCN(Cc1ccccc1)Cc1c(O)cccc1/C=C1\COc2cc(OC)c(OC)cc2C1=O | 1.34 | 28 | < 5 | 8 | – | – | 9.8 | 172 | 38.1 | – | – | – | – | – | – | – | –
15 | CCN(CC)Cc1c(O)cccc1/C=C1\COc2cc(OC)c(OC)cc2C1=O | 2.05 | 29.1 | 6.31 | 20.1 | – | – | 8.5 | 37.4 | 36.7 | – | – | – | – | – | – | – | –
16 | CCN(CC)Cc1ccc(/C=C2\COc3cc(OC)c(OC)cc3C2=O)cc1O | 1.97 | 40.6 | 7.72 | 21.2 | > 8.2 | 2430 | 9.5 | 0.0068 | – | – | – | – | – | – | – | – | –
17 | COc1cc2c(cc1OC)C(=O)/C(=C/c1ccc(CN3CCCCC3)c(O)c1)CO2 | 2.25 | 47 | 19.8 | 39.3 | > 11.5 | 1740 | 24.6 | 0.00249 | – | Active | Active | Active | 10.4 | – | Non-Toxic | 63.4 | Active
18 | COc1cc2c(cc1OC)C(=O)/C(=C/c1ccc(CN3CCCC3)c(O)c1)CO2 | 1.65 | 36.5 | 24.1 | 37.3 | > 27.7 | 722 | 16.4 | 0.362 | – | – | – | – | 11.1 | – | – | – | –
19 | COc1cc2c(cc1OC)C(=O)/C(=C/c1cccc(O)c1)CO2 | 1.73 | 30.3 | 6.18 | 20.1 | > 105 | 190 | 21.9 | 59.3 | – | – | – | – | – | – | – | – | –
